Consider two molecules from patent US8481497B2, “Therapeutic agent for cancer, and method for treatment of cancer” (Sapporo Medical University, priority 2007, dated 2013).

For test [1], the system named is FGFR1 in KMS12BM cells. Nature of the test: FGFR1 expression at mRNA level in multiple myeloma cell line by DNA array. The class given is cell-based. The following applies: 1 micro M decitabine (72 hours) and/or 0.5 micro g/mL ADR (24 hours). As for the experimental part:
Using a DNA array, 1 micro M decitabine and/or 0.5 micro g/mL ADR was administered to KMS12BM cells and a change in expression of FGFR1 at the mRNA level was examined 72 hours after administration of decitabine and 24 hours after administration of ADR. In the graph, the expression level ratio relative to the expression level in the cell line to which no drug was administered is shown on the vertical axis. In the graph, the decitabine administration group is shown by Aza.

In test [2] the test system is FGFR1. The following applies: human hepatic stellate cells; cited from earlier work.

In the case of `COc1cccc2c1C(=O)c1c(O)c3c(c(O)c1C2=O)C[C@@](O)(C(=O)CO)C[C@@H]3O[C@H]1C[C@H](N)[C@H](O)[C@H](C)O1` [ADR, adriamycin], the “expression level of FGFR1 at the mRNA level” value in test [1] was “increased”.

B1: interferon-gamma: type II interferon, a cytokine (protein, UniProt P01579 24-161, looked up)
Interferon gamma: QDPYVKEAENLKKYFNAGHSDVADNGTLFLGILKNWKEESDRKIMQSQIVSFYFKLFKNFKDDQSIQKSVETIKEDMNVKFFNSNKKKRDDFEKLTNYSVTDLNVQRKAIHELIQVMAELSPAAKTGKRKRSQMLFRG
Turning to B1, the “expression of FGFR1” value in test [2] is on record as “reduces”.
